# Experiment: Release of the drugs from their intercalation compounds in phosphate buffer solution at 37° C.
# Assay type: physicochemical
# Details: stirred at 1000 rpm, intercalate in [LiAl2(OH)6]Cl.H2O, UV of filtrate
# Method: Release of the drugs from their intercalation compounds was performed in each case by the addition of 0.0250 g-0.100 g of the intercalation compound to 250 mL phosphate buffer solution at 37° C. […] The release in phosphate buffer at pH 7 and at pH 4 was investigated. Aliquots were removed from the flask at regular time intervals, the solution was filtered and the UV spectrum of the filtrate recorded in a […] quartz cuvette. A baseline scan using the neat solution was recorded prior to the collection of the first spectrum of the filtrate.
"release of the drug from its intercalation compound (phosphate buffer pH 4, 37° C.)","release of the drug from its intercalation compound (phosphate buffer pH 7, 37° C.)",SMILES
rapid,slower and more controlled,"O=C([O-])Cc1ccccc1Nc1c(Cl)cccc1Cl.[Na+] [Diclofenac, sodium (2-(2,6-dichloroanilino)phenyl)acetate]"
rapid,slower and more controlled,"COc1ccc2cc([C@H](C)C(=O)O)ccc2c1 [Naproxen, (+)-2-(6-methoxy-2-naphthyl)propionic acid]"
rapid,slower and more controlled,O=C(O)Cc1ccc(-c2ccccc2)cc1 [4-biphenylacetic acid]
